Measured values taken from patent US5641758A, “Cytarabine derivatives, the preparation and use thereof” (priority 1994, dated 1997).
Like-named read-outs stand apart in the source and are kept apart here.

Assays:
[1] = system: L1210 leukemia; experiment: Intravenous treatment of L1210 leukemia in BDF1 mice; assay type: in vivo, murine (female BDF1 mice); details: i.v.; for Survivors 60 Days: survivors/group; for T/C, increase of lifespan: including 60d survivors
[2] = system: HL-60; experiment: MTT dye reduction cytotoxicity assay, HL-60; assay type: cell-based; details: Homo sapiens
[3] = system: U937; experiment: MTT dye reduction cytotoxicity assay, U937; assay type: cell-based; details: Homo sapiens, U-937
[4] = system: K562; experiment: MTT dye reduction cytotoxicity assay, K562; assay type: cell-based; details: Homo sapiens
[5] = system: CCRF-CEM; experiment: MTT dye reduction cytotoxicity assay, CCRF-CEM; assay type: cell-based; details: Homo sapiens
[6] = system: L1210 leukemia; experiment: Oral treatment of L1210 leukemia in BDF1 mice, therapy on days 1-5; assay type: in vivo, murine (female BDF1 mice); details: for T/C, increase of lifespan: including 60 day survivors; for Survivors 60 Days: survivors/group
Protocol: The anti-tumor activity of the liposomal drug preparations was evaluated with the murine L1210 leukemia model in female BDF1 mice (Rubas et al., Int. J. Cancer, 37, 149-154 (1986)). The L1210 cells (1×10^5) from donor ascites were injected i.v.
Control groups of 5-6 mice received ara-C dissolved in phosphate buffer (PB). The animals were observed daily until death or 60 days. Increase in lifespan of the treated animals (T) was compared to that of the untreated controls (C), expressed as T/C in percentages. Animals surviving 60 days were included in the calculation and considered as being cured.

[7] = system: cytosine deaminase; details: in the body, in words; cited from earlier work
[8] = system: CCRF-CEM (dcK)^-; experiment: MTT dye reduction cytotoxicity assay, CCRF-CEM deoxycytidine kinase deficient cell line; assay type: cell-based; details: Homo sapiens
[9] = system: HL-60; experiment: Human tumor xenograft in nude mice, i.p., leukemia HL-60; assay type: in vivo; details: HL-60, acute promyelocytic leukemia; i.p. 150 mg/kg/day (MTD), days 1,4,7,10
Protocol: (§1) 6 to 8 week old nude mice of NMRI genetic background were used for all experiments. Tumors were implanted subcutaneously in both flanks of athymic nude mice. Treatment was started as soon as the tumors reached a median diameter of 6 mm, depending on the doubling time between day 12-42. Mice were randomly assigned to treatment groups and control group (5-6 mice per group bearing 6-12 evaluable tumors).
(§2) Tumor size was measured by two-dimensional measurement with calipers. The antitumor effect was evaluated following maximal tumor regression, in non-regressing tumors after 3-4 weeks. Relative tumor volume (RTV) values were calculated for each single tumor by dividing the tumor volume day×by the tumor volume day 0 at the time of randomization. Median RTV values were used for further evaluation.
(§3) Drug therapy was intraperitoneal on day 1,4,7 and 10. The dose of 150 mg/kg/day was considered to be the maximal tolerated dose resulting in a lethality of 14% in tumor-bearing nude mice.
(§4) Tumor growth inhibition was calculated according to relative tumor volume of control minus test divided by the control group. Furthermore the specific growth delay (SGD) was calculated with regard to the tumor doubling time (DT) by doubling time test group minus control divided by the doubling time of the control group.

[10] = system: CCRF-CEM; experiment: Human tumor xenograft in nude mice, i.p., leukemia CCRF-CEM; assay type: in vivo; details: acute lymphatic leukemia, i.p. 150 mg/kg/day (MTD), days 1,4,7,10
Protocol: as §1, §2, §3, §4

[11] = system: MAXF 401; experiment: Human tumor xenograft in nude mice, i.p., mammary carcinoma MAXF 401; assay type: in vivo; details: MAXF 401, adenocarcinoma; i.p. 150 mg/kg/day (MTD), days 1,4,7,10
Protocol: as §1, §2, §3, §4

[12] = system: PC3M; experiment: Human tumor xenograft in nude mice, i.p., prostate carcinoma PC3M; assay type: in vivo; details: adenocarcinoma, i.p. 150 mg/kg/day (MTD), days 1,4,7,10
Protocol: as §1, §2, §3, §4

[13] = system: LXFS 605; experiment: Human tumor xenograft in nude mice, i.p., lung carcinoma LXFS 605; assay type: in vivo; details: LXFS 605, small cell; i.p. 150 mg/kg/day (MTD), days 1,4,7,10
Protocol: as §1, §2, §3, §4

[14] = system: LXFL 529; experiment: Human tumor xenograft in nude mice, i.p., lung carcinoma LXFL 529; assay type: in vivo; details: LXFL 529, large cell; i.p. 150 mg/kg/day (MTD), days 1,4,7,10
Protocol: as §1, §2, §3, §4

[15] = system: MEXF 276; experiment: Human tumor xenograft in nude mice, i.p., melanoma MEXF 276; assay type: in vivo; details: MEXF 276, amelanotic; i.p. 150 mg/kg/day (MTD), days 1,4,7,10
Protocol: as §1, §2, §3, §4

[16] = system: OVXF 1023; experiment: Human tumor xenograft in nude mice, i.p., ovary carcinoma OVXF 1023; assay type: in vivo; details: i.p. 150 mg/kg/day (MTD), days 1,4,7,10
Protocol: as §1, §2, §3, §4

[17] = Toxicity (lethality, maximal tolerated dose) in tumor-bearing nude mice, i.p.; details: mouse, in vivo, ip
Protocol: as §1
Drug therapy was intraperitoneal on day 1,4,7 and 10.
Toxicity was assessed by lethality within 10 days after last therapy and body weight loss. The body weight of the nude mice was measured weekly, for rapidly growing tumor lines, measurements were done twice weekly.

[18] = total dose 200 μmol/kg (49 mg/kg)

Structure (SMILES): CCCCCCCCCCCCCCCCNc1ccn([C@@H]2O[C@H](CO)[C@@H](O)[C@@H]2O)c(=O)n1 [N^4 -Hexadecyl-ara-C, 4-(1-hexadecylamino)-1-β-D-arabinofuranosyl-2(1H)-pyrimidinone]
- Survival Time, Mean ± SD ([1]; total dose 50 μmol/kg): 10.6 days
- Survival Time, Range ([1]; total dose 50 μmol/kg): 10 to 11 days
- Survivors 60 Days ([1]; total dose 50 μmol/kg): 0/5
- Survival Time, Mean ± SD ([1]; total dose 100 μmol/kg): 12.0 days
- Survival Time, Range ([1]; total dose 100 μmol/kg): 11 to 16 days
- Survivors 60 Days ([1]; total dose 100 μmol/kg): 0/5

Structure (SMILES): Nc1ccn([C@@H]2O[C@H](CO)[C@@H](O)[C@@H]2O)c(=O)n1 [ara-C, 4-amino-1-β-D-arabinofuranosyl-2(1H)-pyrimidinone, reference compound]
- IC50 ([2]; HL-60): > 200 µM
- IC50 [3]: > 200 µM
- IC50 ([4]; K562): > 400 µM
- IC50 [5]: < 1 µM
- Survival Time, Mean ± SD [1, 18]: 19.8 ± 19.7 days
- T/C, increase of lifespan [1, 18]: 282%
- Survivors 60 Days [1, 18]: 1/6
- Survival Time, Mean ± SD ([6]; total dose 2 mmol/kg): 13 ± 17 days
- Survival Time, Range ([6]; total dose 2 mmol/kg): 10 to 52 days
- T/C, increase of lifespan ([6]; total dose 2 mmol/kg): 221%
- Survivors 60 Days ([6]; total dose 2 mmol/kg): 0/6
- deamination by cytosine deaminase [7]: rapidly undergoes deamination

Structure (SMILES): CCCCCCCCCCCCCCCCCCNc1ccn([C@@H]2O[C@H](CO)[C@@H](O)[C@@H]2O)c(=O)n1 [NOAC, 4-(1-octadecylamino)-1-β-D-arabinofuranosyl-2(1H)-pyrimidinone]
- IC50 ([2]; HL-60, MTT assay, read-out: IC50): < 50 µM
- IC50 ([3]; U937, MTT assay, read-out: IC50): < 100 µM
- IC50 ([4]; K562, MTT assay, read-out: IC50): < 200 µM
- IC50 ([5]; MTT assay, read-out: IC50): 50 µM
- IC50 [8]: < 140 µM
- effect compared with ara-C and N^4-hexadecyl-ara-C ([1]; results of Table 2, in words): superiority of NOAC over the prior art compounds, ara-C and N^4 -hexadecyl-ara-C
- Survival Time, Mean ± SD ([1]; total dose 50 μmol/kg): 52.1 ± 19.2 days
- T/C, increase of lifespan ([1]; total dose 50 μmol/kg): 744%
- Survivors 60 Days ([1]; total dose 50 μmol/kg): 5/6
- Survival Time, Mean ± SD ([1]; total dose 100 μmol/kg): 60 days
- Survival Time, Range ([1]; total dose 100 μmol/kg): > 60 days
- T/C, increase of lifespan ([1]; total dose 100 μmol/kg): 857%
- Survivors 60 Days ([1]; total dose 100 μmol/kg): 6/6
- Survival Time, Mean ± SD ([6]; total dose 1 mmol/kg): 54 ± 15 days
- T/C, increase of lifespan ([6]; total dose 1 mmol/kg): 673%
- Survivors 60 Days ([6]; total dose 1 mmol/kg): 5/6
- Survival Time, Mean ± SD ([6]; total dose 2 mmol/kg): 55 ± 12 days
- T/C, increase of lifespan ([6]; total dose 2 mmol/kg): 689%
- Survivors 60 Days ([6]; total dose 2 mmol/kg): 5/6
- Growth inhibition [9]: 97%
- Growth inhibition [10]: 96%
- Growth inhibition [11]: 85%
- Growth inhibition [12]: 83%
- Growth inhibition [13]: 73%
- Growth inhibition [14]: 79%
- Growth inhibition [15]: 39%
- Growth inhibition [16]: 45%
- MTD ([17]; days 1,4,7 and 10, tumor-bearing nude mice): 150 mg/kg/day
- mortality ([17]; 150 mg/kg/day i.p., tumor-bearing nude mice): 14%
